# Measured values as given in the NIST ThermoML archive (doi:10.1016/j.jct.2015.07.048).
# Numbers after ± are expanded uncertainties.
# Key:
# [1] = xn = mol fraction of the nth substance listed; conditions: 100 kPa, Liquid, x2 = 0; for viscosity: Cone and plate viscometry; for mass density: Vibrating tube method
# [2] = Liquid; for viscosity / electrical conductivity: 100 kPa; for viscosity: Cone and plate viscometry; for electrical conductivity: Direct current cell with electrodes; for mass density: 101.33 kPa, Vibrating tube method
smiles,measurement,setting,value
O=C1CCCO1 [γ-butyrolactone] + CCCn1cc[n+](C)c1.O=S(=O)([N-]S(=O)(=O)C(F)(F)F)C(F)(F)F,viscosity,[1]; 293.15 K,1.92 ± 0.04 mPa·s
same,mass density,[1]; 293.15 K,1129.2 ± 1.6 kg/m3
same,viscosity,[1]; 298.15 K,1.73 ± 0.04 mPa·s
same,mass density,[1]; 298.15 K,1124.26 ± 1.6 kg/m3
same,viscosity,[1]; 303.15 K,1.63 ± 0.04 mPa·s
same,mass density,[1]; 303.15 K,1119.33 ± 1.6 kg/m3
same,viscosity,[1]; 308.15 K,1.52 ± 0.03 mPa·s
same,mass density,[1]; 308.15 K,1114.31 ± 1.6 kg/m3
same,viscosity,[1]; 313.15 K,1.42 ± 0.03 mPa·s
same,mass density,[1]; 313.15 K,1109.23 ± 1.6 kg/m3
same,viscosity,[1]; 318.15 K,1.35 ± 0.03 mPa·s
same,mass density,[1]; 318.15 K,1104.1 ± 1.6 kg/m3
same,viscosity,[1]; 323.15 K,1.3 ± 0.03 mPa·s
same,mass density,[1]; 323.15 K,1098.88 ± 1.6 kg/m3
CCCn1cc[n+](C)c1.O=S(=O)([N-]S(=O)(=O)C(F)(F)F)C(F)(F)F,viscosity,[2]; 293.15 K,54.19 ± 1.1 mPa·s
same,electrical conductivity,[2]; 293.15 K,0.355 ± 0.011 S/m
same,mass density,[2]; 293.15 K,1479.32 ± 1.6 kg/m3
same,viscosity,[2]; 298.15 K,43.94 ± 0.9 mPa·s
same,electrical conductivity,[2]; 298.15 K,0.435 ± 0.013 S/m
same,mass density,[2]; 298.15 K,1474.24 ± 1.6 kg/m3
same,viscosity,[2]; 303.15 K,35.92 ± 0.74 mPa·s
same,electrical conductivity,[2]; 303.15 K,0.521 ± 0.016 S/m
same,mass density,[2]; 303.15 K,1469.4 ± 1.6 kg/m3
same,viscosity,[2]; 308.15 K,30 ± 0.62 mPa·s
same,electrical conductivity,[2]; 308.15 K,0.611 ± 0.018 S/m
same,mass density,[2]; 308.15 K,1464.43 ± 1.6 kg/m3
same,viscosity,[2]; 313.15 K,25.32 ± 0.52 mPa·s
same,electrical conductivity,[2]; 313.15 K,0.71 ± 0.021 S/m
same,mass density,[2]; 313.15 K,1459.44 ± 1.6 kg/m3
same,viscosity,[2]; 318.15 K,21.58 ± 0.44 mPa·s
same,electrical conductivity,[2]; 318.15 K,0.813 ± 0.024 S/m
same,mass density,[2]; 318.15 K,1454.63 ± 1.6 kg/m3
same,viscosity,[2]; 323.15 K,18.82 ± 0.39 mPa·s
same,electrical conductivity,[2]; 323.15 K,0.923 ± 0.028 S/m
same,mass density,[2]; 323.15 K,1449.73 ± 1.6 kg/m3
